Results on one compound are retold here after patent publication US9624211B2, “Anti-cancer compounds” (Board of Regents, The University of Texas System, priority 2013, dated 2017).

Assay [1] concerns Skp2 Trp97Ala and Asp98Ala mutants binding to Skp1. Put plainly: In vitro Skp2-Skp1 binding assay with Skp2 mutants. As to conditions: FIG. 2D. As for the experimental part: For in vitro GST-Skp1 and Skp2 interaction, GST-Skp1 proteins purified from the bacterial lysates of BL21 competent cells transformed with pGEX-4X1-Skp1 using the Glutathione-Agarose beads according to the manufacturer's standard procedures. The GST-Skp1 proteins bound to glutathione Sepharose beads (Amersham Biosciences) were then incubated with the in vitro translated [35^S]-Skp2 for 2 hours at 4° C. in the interaction buffer with or without compound #25 (20 mM HEPES, PH 7.9, 150 mM KCl. 5 mM EDTA, 0.5 mM DTT, 0.1% (v/v) Nonidet p-40, 0.1% (w/v) BSA, 1 mM PMSF, and 10% Glycerol), washed by the NETN buffer (20 mM Tris, pH 8.0, 100 mM NaCl, 6 mM MgCl2, 1 mM EDTA, 0.5% Nonidet P-40, 1 mM DTT, 8% glycerol, 1 mM PMSF) 4 times, and subjected to 8% SDS-PAGE, followed by autoradiography.

A further assay has as its system Skp2 protein expression. As to the kind of experiment: Skp2 protein expression, immunoblotting. It is filed as cell-based. As to conditions: higher dosage (20 μM). An excerpt: Cells were lysed with RIPA buffer in the presence of protease inhibitor cocktail (Roche). The following antibodies were used for immunoblotting analysis: anti-Skp2 (Invitrogen), anti-Xpress (Invitrogen), anti-p27 (BD transduction laboratories), anti-p21 (Santa Cruz), anti-β-actin (Sigma), anti-α-tubulin (Sigma), anti-phospho-Akt (Thr308) (Cell Signaling), anti-phospho-Akt (Ser473) (Cell Signaling), and anti-HA (Convance). For immunohistochemistry, tissues were fixed in 10% formalin and embedded in paraffin in accordance with standard procedures. Sections were stained with anti-Skp2 (Invitrogen), anti-p27 (Epitomics), anti-phosphoAkt (SerS473) (Cell signaling), anti-Glut1 (Abcam), and anti-Ki67 (Abcam). TUNEL staining was performed by using in situ cell death detection kit-POD (Roche).
(In general: In western blotting, separated proteins are transferred to a membrane and probed.)

The next assay concerns β-TRCP. As to the kind of experiment: In vivo ubiquitination assay, β-TRCP substrates. It is filed as cell-based. As to conditions: in the presence of proteasome inhibitor. As for the experimental part: In vivo and in vitro ubiquitination assays were performed as described with modification (Lin et al., 2009; Yang et al., 2009). For in vitro ubiquitination assay, recombinant GST-Akt proteins were expressed, purified and eluted from the bacterial lysates of BL21 competent cells. Flag-Skp2 SCF complex were expressed in 293T cells, immunoprecipitated by anti-Flag antibody, and eluted from Protein A/G beads using Flag peptides according to manufacturers' standard procedures. Purified GST-Akt and Flag-SCF proteins were incubated for 3 h at 37° C. in the absence and presence of Skp2 inhibitor. After incubation, protein mixtures were diluted in E1A Buffer and the supernatant fluid was precleared with Protein A/G beads for 1 h, and immunoprecipitated overnight with anti-Flag antibody, after which Protein A/G beads were added for an additional 1 h. Beads were washed 4 times with E1A Buffer. Proteins were eluted in SDS-sample buffer and subjected to immunoblotting analysis. For in vivo ubiquitination assay, 293T cells were transfected with the indicated plasmids and cultured in the absence or presence of Skp2 inhibitor for 48 h. 6 h before harvest, cells were cultured in the presence of MG132. After cell harvest, cells were lysed by the denatured buffer (6M guanidine-HCl, 0.1M Na2HPO4/NaH2PO4, 10 mM imidazole). […]

The test system of a further assay is LNCaP cells. Put plainly: Cell survival assay, LNCaP. It is filed as cell-based, human. As for the experimental part:
(§1) For Skp2 inhibitor administration, 5-10×10^3 of cells with were seeded in 12 wells in triplicate, 24 h later, treated with compound #25 (refreshed every two days). Four days later, cells were harvested, stained with trypan blue, and viable cells were counted directly under the microscope using hemocytometer. For doxorubicin treatment, 8×10^3 of PC3 cells with were seeded in 12 wells in triplicate, 24 h later, treated with various dose of compound #25 in the presence or absence of 10 nM doxorubicin or 25 ng/ml cyclophosphamide for four and three days, respectively (refreshed every two days). After treatment, cells were harvested, stained with trypan blue, and viable cells were counted directly under the microscope using hemocytometer. Cellular senescence was determined by assessing SA-b-gal activity using senescence detection kit according to manufacturers' standard procedures (Calbiochem).

In the next assay the test system is PC3 cells. Put plainly: Cell cycle by PI staining and flow cytometry. It is filed as cell-based, human. As to conditions: PC3 cells treated for 2 days. As for the experimental part:
FIGS. 12A-D. Skp2 inhibitor triggers cell growth suppression and cell cycle arrest at G2/M phase, related to FIG. 4. (FIG. 12A) The impact of Skp2 inhibitor on growth suppression in various cell lines. A panel of cancer cell lines were treated with various doses of Skp2 inhibitor (#25) for 4 days, and viable cell numbers were counted using hemocytometer. Growth inhibition (IC50) by compound #25 was derived from the cell counting using hemocytometer. (FIG. 12B) PC3 cells were treated with or without compound #25 for 2 days and cell cycle were determined by PI staining, followed by flow cytometry analysis. G1 phase=61.3±0.3%, S phase=15.6±0.6% and G2/M phase=20.3±0.3% in DMSO-treated PC3 cells while G1 phase=50.1±0.9%, S phase=13.3±0.8% and G2/M phase=24.5±0.3% in #25-treated PC3 cells. (FIG. 12C) Control- or Skp2-knockdown PC3 cells were treated with or without compound #25 for 2 days and cell cycle were determined by PI staining, followed by flow cytometry analysis. Two clones of Skp2 shRNA were used in this assay. G1 phase=53.1±0.8% and S phase=15.9±0.9% and G2/M phase=26.1±0.6% in control-knockdown PC3 cells, G1 phase=49.5±0.4%, S phase=13.6±0.7% and G2/M phase=29.1±0.5% in one clone of Skp2-silenced PC3 cells, G1 phase=54.5±1.6%, S phase=10.6±0.4% and G2/M phase=28.8±0.2% in another clone of Skp2-silenced PC3 cells. (FIG. 12D) WT or Skp2−/− MEFs were treated with or without compound #25 for 2 days, and cell cycle was determined by PI staining, followed by flow cytometry analysis. G1 phase=50.5±4.6%, S phase=9.1±0.6% and G2/M phase=27.8±0.9% in WT MEFs while G1 phase=27.7±1.3%, S phase=8.2±1.9% and G2/M phase=39.0±1.6% in Skp2−/− MEFs. Results are presented as mean values ±S.D. * indicates p<0.05, ** indicates p<0.01. Results from treatment groups were compared to vehicle-treated group.
For orientation: Flow cytometry measures light scatter and fluorescence of single cells or particles in a stream.

Assay [2] relates to p53-deficient prostate cancer cells. Put plainly: Cell senescence assay (SA-b-gal). It is filed as cell-based. As for the experimental part: as §1

For the compound `CCc1cc2c(=O)c(-c3nc4ccccc4s3)coc2c(CN2CCCCC2)c1O` [compound #25, 3-(1,3-benzothiazol-2-yl)-6-ethyl-7-hydroxy-8-(1-piperidinylmethyl)-4H-chromen-4-one], in assay [1], the “binding of Skp2 Trp97Ala and Asp98Ala mutants to Skp1” value is “unable to inhibit”. The Skp2 protein expression entry in the assay on Skp2 protein expression is “downregulated Skp2 protein expression”. The “β-TRCP-mediated ubiquitination (β-catenin, Snail, IκBα)” value in the assay on β-TRCP is reported as “no appreciable effect”. In the assay on LNCaP cells, the cell viability result was “potent effects on cell viability”. For the same compound, in the assay on PC3 cells, the G1 phase is 50.1±0.9%, the G2/M phase came out at 24.5±0.3% and the S phase stood at 13.3±0.8%. In addition, the cellular senescence entry in assay [2] is “triggered cellular senescence”.
